Laboratory results taken from US9067884B2, “Pyrrole compounds that modulate HSP90 activity” (Synta Pharmaceuticals Corp., priority 2008, dated 2015).

How the values were obtained:
Hsp90 = assay: IC50 range of compounds of the invention for  inhibition of Hsp90 (Method 2: MV-4-11 cells, Cell Counting Kit-8); type: cell-based, human; conditions: text: IC50 range for Her2 degradation, 72 hours, cell survival by Cell Counting Kit-8
Experimental: MV-4-11 cells (20,000 cells/well) were cultured in 96-well plates and maintained at 37° C. for several hours. The cells were treated with a compound of the invention or 17AAG (a positive control) at various concentrations and incubated at 37° C. for 72 hours. Cell survival was measured with Cell Counting Kit-8 (Dojindo Laboratories, Cat. # CK04).

Her2 = assay: Degradation of Her2 in BT-474 cells (Method 1, Western blot); type: cell-based, Human; conditions: 0.5 μM, overnight
Experimental: Human high-Her2 breast carcinoma BT474 (HTB-20), SK-BR-3 (HTB-30) and MCF-7 breast carcinoma (HTB-22) from American Type Culture Collection, VA, USA were grown in Dulbecco's modified Eagle's medium with 4 mM L-glutamine and antibiotics (100 IU/ml penicillin and 100 μg/ml streptomycine; GibcoBRL). To obtain exponential cell growth, cells were trypsinized, counted and seeded at a cell density of 0.5×10^6 cells/ml regularly, every 3 days. All experiments were performed on day 1 after cell passage.
BT-474 cells are treated with 0.5 μM, 2 μM, or 5 μM of 17AAG (a positive control) or 0.5 μM, 2 μM, or 5 μM of a compound of the invention overnight in DMEM medium. After treatment, each cytoplasmic sample, is prepared from 1×10^6 cells by incubation of cell lysis buffer (#9803, Cell Signaling Technology) on ice for 10 minutes. The resulting supernatant used as the cytosol fractions is dissolved with sample buffer for SDS-PAGE and run on a SDS-PAGE gel, blotted onto a nitrocellulose membrane by using semi-dry transfer. Non-specific binding to nitrocellulose is blocked with 5% skim milk in TBS with 0.5% Tween at room temperature for 1 hour, then probed with anti-Her2/ErB2 mAb (rabbit IgG, #2242, Cell Signaling) and anti-Tubulin (T9026, Sigma) as housekeeping control protein. […]

Compound | IC50 (Hsp90) | degradation of Her2 (Her2)
CCNC(=O)c1ccc(-c2cc(C(C)C)c(O)cc2O)n1-c1ccc(N(C)C)cc1 [Compound 3, 5-(2,4-dihydroxy-5-isopropylphenyl)-1-(4-(dimethylamino)phenyl)-N-ethyl-1H-pyrrole-2-carboxamide] | > 1000 nM | 
C=CCNC1=C2C[C@@H](C)C[C@H](OC)[C@H](O)[C@@H](C)/C=C(\C)[C@H](OC(N)=O)[C@@H](OC)/C=C\C=C(/C)C(=O)NC(=CC1=O)C2=O [Compound 17AAG, 17-allylamino-17-demethoxygeldanamycin] |  | partial degradation of Her2
